Test results: patent US9096624B2 (OSI Pharmaceuticals, LLC, priority 2009, dated 2015)

Key:
[1] = target: T1, FAK (Homo sapiens, UniProt Q05397); assay: Cell-based capture ELISA for inhibition of FAK autophosphorylation [pY397] in MiaPaCa2 cells
Description: Cell-Based Assays for Inhibition of FAK Autophosphorylation: MiaPaCa2 and U87MG
ELISA kit from Invitrogen (KHO0441).
Reagents Provided in Biosource FAK [pY397]
The cells were then suspended in cell assay medium.

[2] = target: T1, FAK; assay: biochemical
[3] = MIA-PaCa2 cells, + 50% mouse plasma (Table 3), read-out: Mean FAK Cell Mechanistic IC50 + 50% mP MIA-PaCa2
[4] = MIA-PaCa2 cells on fibronectin, 2 h, no plasma, read-out: Mean FAK Cell Mechanistic IC50 MIA-PaCa2
[5] = MIA-PaCa2 cells, + 50% human plasma, read-out: Mean FAK Cell Mechanistic IC50 + 50% hP MIA-PaCa2
[6] = MIA-PaCa2 cells, + 50% mouse plasma (Table 2), read-out: Mean FAK Cell Mechanistic IC50 + 50% mP MIA-PaCa2

T1 sequence (Q05397 whole entry): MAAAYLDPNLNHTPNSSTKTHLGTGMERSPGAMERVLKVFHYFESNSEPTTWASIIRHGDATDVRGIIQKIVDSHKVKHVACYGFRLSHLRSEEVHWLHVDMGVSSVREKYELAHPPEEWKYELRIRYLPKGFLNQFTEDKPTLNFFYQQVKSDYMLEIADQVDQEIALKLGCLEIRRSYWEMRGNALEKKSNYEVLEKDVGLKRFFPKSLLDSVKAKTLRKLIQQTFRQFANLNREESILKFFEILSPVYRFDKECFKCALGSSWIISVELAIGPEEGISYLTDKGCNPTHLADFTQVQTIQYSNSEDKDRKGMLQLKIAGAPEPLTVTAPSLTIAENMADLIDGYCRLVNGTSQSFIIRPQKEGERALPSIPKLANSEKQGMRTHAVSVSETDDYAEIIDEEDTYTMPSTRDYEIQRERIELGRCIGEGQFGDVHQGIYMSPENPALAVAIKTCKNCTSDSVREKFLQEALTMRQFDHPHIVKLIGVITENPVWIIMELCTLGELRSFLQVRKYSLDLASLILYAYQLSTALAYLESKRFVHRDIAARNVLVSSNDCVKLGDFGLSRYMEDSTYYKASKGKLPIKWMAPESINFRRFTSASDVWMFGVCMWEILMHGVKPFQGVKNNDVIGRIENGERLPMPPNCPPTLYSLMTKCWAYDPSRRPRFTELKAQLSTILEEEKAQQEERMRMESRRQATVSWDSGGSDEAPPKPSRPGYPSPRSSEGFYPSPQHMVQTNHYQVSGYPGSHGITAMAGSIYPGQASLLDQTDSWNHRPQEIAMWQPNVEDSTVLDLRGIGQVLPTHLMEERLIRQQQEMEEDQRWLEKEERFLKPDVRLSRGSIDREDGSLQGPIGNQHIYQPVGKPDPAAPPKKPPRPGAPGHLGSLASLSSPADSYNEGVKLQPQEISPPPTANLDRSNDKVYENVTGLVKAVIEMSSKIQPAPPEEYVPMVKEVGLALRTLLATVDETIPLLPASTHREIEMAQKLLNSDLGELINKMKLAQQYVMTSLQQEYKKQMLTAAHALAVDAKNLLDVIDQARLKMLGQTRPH

Row | Compound | IC50 [1, 3] [nM] | IC50 [2] [nM] | IC50 [1, 4] [nM] | IC50 [1, 5] [nM] | IC50 [1, 6] [nM]
1 | CCOP(=O)(Cc1ccc(Nc2ncc(C(F)(F)F)c(Nc3ccc([C@H]4CC[C@@H](O)CC4)cc3C(=O)NC)n2)cc1)OCC [Example 138, Diethyl (4-{[4-{[4-(cis-4-hydroxycyclohexyl)-2-(methylcarbamoyl)phenyl]amino}-5-(trifluoromethyl)pyrimidin-2-yl]amino}benzyl)phosphonate] | < 1000 | < 1000 | – | – | –
2 | CCOP(=O)(Cc1ccc(Nc2ncc(C(F)(F)F)c(Nc3ccc(C4CCC(N(C)C)CC4)c4c3C(=O)N(C)C4)n2)c(OC)c1)OCC (stereo not shown) [Example 233, Diethyl (4-{[4-({7-[4-(dimethylamino)cyclohexyl]-2-methyl-3-oxo-2,3-dihydro-1H-isoindol-4-yl}amino)-5-(trifluoromethyl)pyrimidin-2-yl]amino}-3-methoxybenzyl)phosphonate] | < 1000 | < 1000 | – | – | –
3 | CCOP(=O)(Cc1ccc(Nc2ncc(C(F)(F)F)c(Nc3ccc([C@H]4CC[C@@H](OCC)CC4)c4c3C(=O)N(C)C4)n2)cc1)OCC [Example 166, Diethyl (4-{[4-{[7-(cis-4-ethoxycyclohexyl)-2-methyl-3-oxo-2,3-dihydro-1H-isoindol-4-yl]amino}-5-(trifluoromethyl)pyrimidin-2-yl]amino}benzyl)phosphonate] | < 1000 | < 1000 | – | – | –
4 | CCOP(=O)(Cc1ccc(Nc2ncc(C(F)(F)F)c(Nc3ccccc3C(=O)N3CCCC3)n2)cc1)OCC [Example 176, Diethyl (4-{[4-{[2-(pyrrolidin-1-ylcarbonyl)phenyl]amino}-5-(trifluoromethyl)pyrimidin-2-yl]amino}benzyl)phosphonate] | 1000 to 10000 | < 1000 | – | – | –
5 | CCP(=O)(CC)Cc1ccc(Nc2ncc(C(F)(F)F)c(Nc3ccccc3C(=O)NC)n2)cc1 [Example 24, 2-{[2-({4-[(Diethylphosphoryl)methyl]phenyl}amino)-5-(trifluoromethyl)pyrimidin-4-yl]amino}-N-methylbenzamide] | – | < 1000 | < 1000 | < 1000 | < 1000
6 | CCOP(=O)(Cc1ccc(Nc2ncc(C(F)(F)F)c(Nc3ccc(Br)c4c3C(=O)N(C)C4)n2)c(OC)c1)OCC [Example 62, Diethyl [4-({4-[(7-bromo-2-methyl-3-oxo-2,3-dihydro-1H-isoindol-4-yl)amino]-5-(trifluoromethyl)pyrimidin-2-yl}amino)-3-methoxybenzyl]phosphonate] | – | < 1000 | < 1000 | 1000 to 10000 | –
7 | CCOP(=O)(Cc1ccc(Nc2ncc(C(F)(F)F)c(Nc3cccc4[nH]cc(C)c(=O)c34)n2)cc1)OCC [Example 203, Diethyl [4-({4-[(3-methyl-4-oxo-1,4-dihydroquinolin-5-yl)amino]-5-(trifluoromethyl)pyrimidin-2-yl}amino)benzyl]phosphonate] | < 1000 | < 1000 | – | – | –
8 | CCOP(=O)(Cc1ccc(Nc2ncc(C(F)(F)F)c(Nc3ccc(-c4cnn(C[C@H](O)CO)c4)c4c3C(=O)N(C)C4)n2)c(OC)c1)OCC [Example 70, Diethyl [4-({4-[(7-{1-[(2S)-2,3-dihydroxypropyl]-1H-pyrazol-4-yl}-2-methyl-3-oxo-2,3-dihydro-1H-isoindol-4-yl)amino]-5-(trifluoromethyl)pyrimidin-2-yl}amino)-3-methoxybenzyl]phosphonate] | – | < 1000 | < 1000 | < 1000 | –
9 | CCOc1ccc(Nc2nc(Nc3ccc(CP(=O)(OCC)OCC)cc3)ncc2C(F)(F)F)c2c1CN(C)C2=O [Example 206, Diethyl [4-({4-[(7-ethoxy-2-methyl-3-oxo-2,3-dihydro-1H-isoindol-4-yl)amino]-5-(trifluoromethyl)pyrimidin-2-yl}amino)benzyl]phosphonate] | < 1000 | < 1000 | – | – | –
10 | CCOP(=O)(OCC)C(F)c1ccc(Nc2ncc(C(F)(F)F)c(Nc3ccccc3C(=O)NC)n2)cc1 (stereo not shown) [Example 172, Diethyl [fluoro(4-{[4-{[2-(methylcarbamoyl)phenyl]amino}-5-(trifluoromethyl)pyrimidin-2-yl]amino}phenyl)methyl]phosphonate] | < 1000 | < 1000 | – | – | –
11 | CCOP(=O)(Cc1ccc(Nc2ncc(C(F)(F)F)c(Nc3ccc(C(=O)N4CCCC4)c4c3C(=O)N(C)C4)n2)c(OC)c1)OCC [Example 117, Diethyl (3-methoxy-4-{[4-{[2-methyl-3-oxo-7-(pyrrolidin-1-ylcarbonyl)-2,3-dihydro-1H-isoindol-4-yl]amino}-5-(trifluoromethyl)pyrimidin-2-yl]amino}benzyl)phosphonate] | < 1000 | < 1000 | – | – | –
12 | CCOP(=O)(O)Cc1ccc(Nc2ncc(C(F)(F)F)c(Nc3ccc(-c4cnn(CCCO)c4)c4c3C(=O)N(C)C4)n2)cc1 [Example 182, Sodium ethyl (4-{[4-({7-[1-(3-hydroxypropyl)-1H-pyrazol-4-yl]-2-methyl-3-oxo-2,3-dihydro-1H-isoindol-4-yl}amino)-5-(trifluoromethyl)pyrimidin-2-yl]amino}benzyl)phosphonate] | 1000 to 10000 | < 1000 | – | – | –
13 | CCOP(=O)(O)c1ccc(Nc2ncc(C(F)(F)F)c(NCc3cccnc3N(C)S(C)(=O)=O)n2)cc1 [Example 40, Ethyl hydrogen [4-({4[({2-[methyl(methylsulfonyl)amino]pyridin-3-yl}methyl)amino]-5-(trifluoromethyl)pyrimidin-2-yl}amino)phenyl]phosphonate] | – | < 1000 | 1000 to 10000 | 1000 to 10000 | –
14 | CCOP(=O)(Cc1ccc(Nc2ncc(C(F)(F)F)c(Nc3ccc([C@H]4CC[C@H](O)CC4)c4c3C(=O)N(C)C4)n2)cc1)OCC (stereo in doubt) [Example 92, Diethyl (4-{[4-{[7-(trans-4-hydroxycyclohexyl)-2-methyl-3-oxo-2,3-dihydro-1H-isoindol-4-yl]amino}-5-(trifluoromethyl)pyrimidin-2-yl]amino}benzyl)phosphonate] | – | < 1000 | – | – | < 1000
15 | CN(c1ncccc1CNc1nc(Nc2ccc(CP(=O)(OCC3CCC3)OCC3CCC3)cc2)ncc1C(F)(F)F)S(C)(=O)=O [Example 34, bis(cyclobutylmethyl) [4-({4-[({2-[methyl(methylsulfonyl)amino]pyridin-3-yl}methyl)amino]-5-(trifluoromethyl)pyrimidin-2-yl}amino)benzyl]phosphonate] | – | < 1000 | – | – | 1000 to 10000
16 | CCOP(=O)(Cc1ccc(Nc2ncc(C(F)(F)F)c(Nc3ccc([C@H]4CC[C@H](N5CCN(C)CC5)CC4)c4c3C(=O)N(C)C4)n2)c(OC)c1)OCC [Example 96, Diethyl (3-methoxy-4-{[4-({2-methyl-7-[trans-4-(4-methylpiperazin-1-yl)cyclohexyl]-3-oxo-2,3-dihydro-1H-isoindol-4-yl}amino)-5-(trifluoromethyl)pyrimidin-2-yl]amino}benzyl)phosphonate] | – | < 1000 | – | – | < 1000
17 | CCOC(=O)[C@H]1CC[C@@H](c2ccc(Nc3nc(Nc4ccc(CP(=O)(OCC)OCC)cc4OC)ncc3C(F)(F)F)c3c2CN(C)C3=O)CC1 [Example 87, Ethyl cis-4-(7-{[2-({4-[(diethoxyphosphoryl)methyl]-2-methoxyphenyl}amino)-5-(trifluoromethyl)pyrimidin-4-yl]amino}-2-methyl-1-oxo-2,3-dihydro-1H-isoindol-4-yl)cyclohexanecarboxylate] | – | < 1000 | – | – | < 1000
18 | CCOP(=O)(Cc1ccc(Nc2ncc(C(F)(F)F)c(Nc3ccc([C@H]4CC[C@H](O)CC4)nc3C(=O)NC)n2)c(OC)c1)OCC [Example 232, Diethyl (4-{[4-{[6-(trans-4-hydroxycyclohexyl)-2-(methylcarbamoyl)pyridin-3-yl]amino}-5-(trifluoromethyl)pyrimidin-2-yl]amino}-3-methoxybenzyl)phosphonate] | < 1000 | < 1000 | – | – | –
19 | C=C(C)c1ccc(Nc2nc(Nc3ccc(CP(C)(=O)OCC)cc3)ncc2C(F)(F)F)c2c1CN(C)C2=O (stereo not shown) [Example 68, Ethyl methyl(4-{[4-{[2-methyl-3-oxo-7-(prop-1-en-2-yl)-2,3-dihydro-1H-isoindol-4-yl]amino}-5-(trifluoromethyl)pyrimidin-2-yl]amino}benzyl)phosphinate] | – | < 1000 | < 1000 | 1000 to 10000 | –
20 | CCOP(=O)(Cc1ccc(Nc2ncc(C(F)(F)F)c(Nc3ccccc3C(=O)NC)n2)cc1)OCC [Example 20, diethyl (4-{[4-{[2-(methylcarbamoyl)phenyl]amino}-5-(trifluoromethyl)pyrimidin-2-yl]amino}benzyl)phosphonate] | – | < 1000 | < 1000 | < 1000 | –
21 | CN(c1ncccc1CNc1nc(Nc2ccc(P3(=O)OCC(C)(C)CO3)cc2)ncc1C(F)(F)F)S(C)(=O)=O [Example 60, N-[3-({[2-{[4-(5,5-dimethyl-2-oxido-1,3,2-dioxaphosphinan-2-yl)phenyl]amino}-5-(trifluoromethyl)pyrimidin-4-yl]amino}methyl)pyridin-2-yl]-N-methylmethanesulfonamide] | – | < 1000 | < 1000 | < 1000 | < 1000
22 | CC(C)OP(=O)(OC(C)C)c1ccc(Nc2ncc(C(F)(F)F)c(NCc3cccnc3N(C)S(C)(=O)=O)n2)cc1 [Example 38, dipropan-2-yl [4-({4-[({2-[methyl(methylsulfonyl)amino]pyridin-3-yl}methyl)amino]-5-(trifluoromethyl)pyrimidin-2-yl}amino)phenyl]phosphonate] | – | < 1000 | – | – | 1000 to 10000
23 | CCOP(=O)(Cc1ccc(Nc2ncc(C(F)(F)F)c(NCc3cccc(S(C)(=O)=O)c3)n2)cc1)OCC [Example 25, diethyl (4-{[4-{[3-(methylsulfonyl)benzyl]amino}-5-(trifluoromethyl)pyrimidin-2-yl]amino}benzyl)phosphonate] | – | < 1000 | – | – | 1000 to 10000
